In paper PMC6013488, “A widely-applicable high-throughput cellular thermal shift assay (CETSA) using split Nano Luciferase” (Scientific Reports, 2018):
Counter-ions that a name gives are not always drawn. Like-named read-outs stand apart in the source and are kept apart here.

Target: T1, CDK9/cyclin K (Homo sapiens, UniProt P50750)
T1 construct: purchased Invitrogen (ThermoFisher) PV4335
Experiment: TR-FRET Lanthascreen Eu Kinase Binding assay
Details: for Curve Class: classifies curves by quality of fit, efficacy and number of asymptotes; for Efficacy: difference between highest and lowest activity across concentration range; for Efficacy / Max Resp: in %
Text: The TR-FRET Lanthascreen Eu Kinase Binding assay for CDK9/cyclin K was purchased from ThermoFisher and performed as per manufacturer instructions.

[1] = concentration at which half maximal activity is observed, 7-point qHTS, read-out: AC50
[2] = AC50, concentration at which half maximal activity is observed, 7-point qHTS
[3] = logarithm of AC50, read-out: Log AC50 (converted)

T1 sequence (P50750 whole entry): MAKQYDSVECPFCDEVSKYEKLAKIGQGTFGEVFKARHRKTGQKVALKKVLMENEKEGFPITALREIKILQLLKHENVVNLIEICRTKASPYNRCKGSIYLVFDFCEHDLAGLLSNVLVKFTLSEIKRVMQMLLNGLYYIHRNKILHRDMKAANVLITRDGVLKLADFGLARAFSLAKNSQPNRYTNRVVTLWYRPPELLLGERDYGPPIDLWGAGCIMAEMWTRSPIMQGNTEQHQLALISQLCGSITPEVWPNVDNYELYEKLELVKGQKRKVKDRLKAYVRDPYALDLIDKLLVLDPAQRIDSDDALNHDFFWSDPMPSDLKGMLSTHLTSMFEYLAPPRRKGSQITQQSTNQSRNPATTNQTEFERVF
T1 sequence (O75909 whole entry partner): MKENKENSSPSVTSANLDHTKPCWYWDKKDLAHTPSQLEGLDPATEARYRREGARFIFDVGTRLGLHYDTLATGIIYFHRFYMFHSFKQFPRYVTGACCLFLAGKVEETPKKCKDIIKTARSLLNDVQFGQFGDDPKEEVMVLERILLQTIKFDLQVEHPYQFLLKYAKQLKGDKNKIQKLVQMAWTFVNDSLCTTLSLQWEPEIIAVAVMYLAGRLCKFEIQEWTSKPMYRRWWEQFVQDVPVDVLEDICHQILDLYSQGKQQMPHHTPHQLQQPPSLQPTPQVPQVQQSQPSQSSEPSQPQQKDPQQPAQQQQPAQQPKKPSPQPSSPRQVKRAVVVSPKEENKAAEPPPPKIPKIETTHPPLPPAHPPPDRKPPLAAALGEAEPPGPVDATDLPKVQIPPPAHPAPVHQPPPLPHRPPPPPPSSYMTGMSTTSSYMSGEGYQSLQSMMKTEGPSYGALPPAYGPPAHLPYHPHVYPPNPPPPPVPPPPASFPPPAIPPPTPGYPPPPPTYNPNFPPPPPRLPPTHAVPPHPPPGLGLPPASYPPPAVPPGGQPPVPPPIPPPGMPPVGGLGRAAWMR

Curve Class | Efficacy | Max Resp | Structure (SMILES) | AC50 [1] | Log AC50 (M) (logarithm of AC50) | AC50 [2] | AC50 [3]
-1.4 | -58.3 | -64.1 | COc1ccc2c(NC(=O)Nc3cccc(C(F)(F)F)n3)ccnc2c1 [A 1070722] |  |  |  | 
-1.1 | -86.8 | -79.5 | CC(C)n1nc(-c2ccc(NC(=O)Nc3cccc(C(F)(F)F)c3)cc2)c2c(N)ncnc21 [AD57 (hydrochloride)] |  |  |  | 
-1.2 | -79.8 | -85.8 | N#C/C(=C1\Nc2ccccc2S1)c1ccnc(NCCc2cccnc2)n1 [AS601245] |  |  |  | 
5 | -14.9 | -96.9 | O=C(NC1CCNCC1)c1[nH]ncc1NC(=O)c1c(Cl)cccc1Cl [AT7519] |  |  |  | 
-1.2 | -76.1 | -97.4 | CC(C)Oc1cc(Nc2nc(N[C@@H](C)c3ccc(F)cn3)ncc2Cl)n[nH]1 [AZ 23] |  |  |  | 
-1.3 | -51.7 | -96.5 | CN[C@H]1CCN(C(=O)c2ccc(Nc3ncc(F)c(-c4cnc(C)n4C(C)C)n3)cc2)C1 [AZD-5597] |  |  |  | 
-1.1 | -82.6 | -92.4 | O=C1Cc2c([nH]c3ccc([N+](=O)[O-])cc23)-c2ccccc2N1 [Alsterpaullone] |  |  |  | 
-1.1 | -91.8 | -92.1 | COc1ccc(-c2cc3nccn3c(Nc3ncccc3C(N)=O)n2)cc1OC [BAY 61-3606 (dihydrochloride)] |  |  |  | 
-1.2 | -77.1 | -79.3 | Cc1cc(CN2CCN(c3c(Br)cnc4[nH]c(-c5ccc(N6CCN(C)CC6)cc5)nc34)CC2)no1 [CCT137690] |  |  |  | 
-1.2 | -56.9 | -98.0 | OCCCNc1cc(-c2ccnc(Nc3cccc(Cl)c3)n2)ccn1 [CGP60474] |  |  |  | 
-1.1 | -87.0 | -80.6 | Nc1nc(NCCNc2ncc(-n3ccnc3)c(-c3ccc(Cl)cc3Cl)n2)ccc1[N+](=O)[O-] [CHIR98014] |  |  | 134 nM | 
-1.1 | -83.3 | -91.2 | COCCOc1ccc2c(c1)ncn2-c1ccc2cccc(N3CCC(N)CC3)c2n1 [CP-673451] | 150 nM |  |  | 
-1.1 | -92.0 | -90.5 | Cc1nc(N)sc1-c1ccnc(Nc2ccc(N3CCOCC3)cc2)n1 [CYC-116] |  |  |  | 
-1.1 | -85.8 | -96.7 | N#CCNC(=O)c1ccc(-c2ccnc(Nc3ccc(N4CCOCC4)cc3)n2)cc1 [CYT-387] |  |  |  | 
-1.2 | -57.1 | -99.2 | CC(C)c1nn(-c2c(Cl)cccc2Cl)c2nc(Cc3ccc(OCCO)cc3)[nH]c(=O)c12 [Cdk/Crk Inhibitor] |  |  |  | 
-1.1 | -89.8 | -98.7 | Cc1n[nH]c2ccc(-c3cncc(OC[C@@H](N)Cc4ccccc4)c3)cc12 [Compound A-674563, A-674563] |  |  |  | 
-1.2 | -69.1 | -74.0 | CN(C)CCCn1cc(C2=C(c3c[nH]c4ccccc34)C(=O)NC2=O)c2ccccc21 [GF109203X] |  |  |  | 
-1.1 | -89.8 | -91.2 | O=C1NC(=O)/C(=C/c2ccc3nccc(-c4ccncc4)c3c2)S1 [GSK1059615] |  |  |  | 
-1.2 | -77.0 | -89.0 | O=C(O)c1ccc(-c2c[nH]c3ncc(-c4ccccc4)cc23)cc1C1CCCC1 [GSK-650394] |  |  |  | 
-1.2 | -79.9 | -87.0 | O=C1NC(=O)/C(=C/c2ccc3nccc(-c4ccncc4)c3c2)S1 [GSK-1059615] |  |  |  | 
-1.1 | -99.4 | -92.5 | O=C1Nc2ccc3ncsc3c2/C1=C/Nc1ccc([S+](=O)([O-])Nc2ccccn2)cc1 [GW8510] |  |  |  | 
-1.1 | -85.9 | -78.2 | COc1ccc(-c2oc3ncnc(N)c3c2-c2ccc(NC(=O)Nc3cc(C(F)(F)F)ccc3F)cc2)cc1 [GW768505A] |  |  |  | 631 nM
-1.2 | -75.6 |  | O=C(Nc1nc2ccccc2n1CCN1CCOCC1)c1cccc([N+](=O)[O-])c1 [IRAK-1-4 Inhibitor I] |  |  |  | 
-1.1 | -93.4 | -97.5 | Nc1nc(Nc2ccc(S(N)(=O)=O)cc2)nn1C(=O)c1c(F)cccc1F [JNJ7706621] |  |  |  | 
-1.1 | -86.0 | -91.6 | CN(C)C/C=C/C(=O)Nc1cccc(C(=O)Nc2ccc(Nc3nccc(-c4cccnc4)n3)cc2)c1 [JNK-IN-7] |  |  |  | 
-1.1 | -80.5 | -37.7 | O=C1Cc2c([nH]c3ccc(Br)cc23)-c2ccccc2N1 [Kenpaullone] | 336 nM |  |  | 
-1.1 | -96.3 | -94.5 | COc1ccccc1-c1cc(Nc2cccc(C[S+](N)(=O)[O-])c2)ncn1 [LDC000067] |  |  |  | 

Structure (SMILES) | Curve Class | Efficacy | Max Resp | AC50 [1] | Log AC50 (M) (logarithm of AC50) | AC50 [2] | AC50 [3]
Nc1n[nH]c(N)c1N=Nc1ccc(O)cc1 (stereo in doubt) [CAY10574] | -1.1 | -84.6 | -95.5 |  |  |  | 
CCCCNc1ncc(C(=O)NCc2ccc(-n3ccnc3)cc2)c(NC2CCC(O)CC2)n1 (stereo in doubt) [UNC2881] | -1.1 | -93.2 | -99.2 |  |  |  | 
O=C1Nc2ccc(F)cc2/C1=C1\Nc2ccccc2\C1=N\O [5 -Fluoroindirubinoxime] | -1.1 | -80.2 | -86.1 |  |  |  | 
Nc1ncnc2c1c(I)cn2[C@@H]1O[C@H](CO)[C@H](O)C1O (stereo partly drawn) [5-Iodotubercidin] | -1.1 | -92.5 | -99.1 |  |  |  | 
O=C(Nc1c[nH]nc1-c1nc2ccc(CN3CCOCC3)cc2[nH]1)NC1CC1 [AT9283] | -1.1 | -93.9 | -97.0 |  |  |  | 
Cc1ncc(-c2ccnc(Nc3ccc(S(C)(=O)=O)cc3)n2)n1C(C)C [AZD5438] | -1.2 | -75.7 | -98.3 |  |  |  | 
CC(=O)N1CCN(C(=O)Cc2ccc(Nc3ncc(F)c(Nc4ccc(C(=O)Nc5ccccc5Cl)cc4)n3)cc2)CC1 [Aurora A inhibitor II] | -1.1 | -82.6 | -83.7 | 947 nM | -6.0 M |  | 
CC(C)c1cnn2c(NCc3ccccc3)cc(N[C@@H](CO)[C@H](O)CO)nc12 [BS194] | -1.1 | -108.2 | -95.8 |  |  |  | 
O=C(NCCCNc1nc(Nc2cccc(NC(=O)N3CCCC3)c2)ncc1I)c1cccs1 [BX-795 hydrochloride] | -1.1 | -99.6 | 5.8 |  |  |  | 
CC1(COc2ccc3c(c2)ncn3-c2ccc3cccc(N4CCC(N)CC4)c3n2)COC1 [CP-868596 (Crenolanib)] | -1.1 | -91.6 | -90.2 |  |  |  | 
COc1ccc(CNc2nc(N(CCO)CCO)nc3c2ncn3C(C)C)cc1 [CVT-313] | -1.1 | -101.1 | -99.9 | 532 nM |  |  | 
O=C(O)c1ccc2c(c1)nc(Nc1cccc(Cl)c1)c1ccncc12 [CX-4945 (sodium salt)] | -1.1 | -98.0 | -93.5 |  |  |  | 
NS(=O)(=O)c1ccc(NN=C2C(=O)Nc3ccc(Br)cc32)cc1 [Cdk2 Inhibitor II] | -1.2 | -67.2 | -64.7 |  |  |  | 
Cc1n[nH]c2ccc(-c3cncc(OC[C@@H](N)Cc4c[nH]c5ccccc45)c3)cc12 [Compound A-443654, A-443654] | -1.1 | -88.0 | -96.6 |  |  |  | 
O=C1Nc2ccc3ncsc3c2/C1=C/c1c[nH]cn1 [Compound C16, C16] | -1.2 | -77.3 | -68.5 |  |  |  | 
CN1CCC(c2c(O)cc(O)c3c(=O)cc(-c4ccccc4Cl)oc23)C1CO (stereo not drawn) [Compound P276-00, P276-00] | -1.2 | -60.7 | -99.0 |  |  |  | 
COc1ccc(F)c(F)c1C(=O)c1cnc(NC2CCN([S+](C)(=O)[O-])CC2)nc1N [Compound R547, R547] | 5 | -13.4 | -94.3 |  |  |  | 
NC(=O)c1ccccc1Nc1ccnc(Nc2cccc(O)c2)n1 [DB07268] | -1.1 | -100.7 | -97.2 |  |  |  | 
CN(C)c1nc2c(Br)c(Br)c(Br)c(Br)c2[nH]1 [DMAT] | -1.1 | -84.2 | -94.6 |  |  |  | 
CNC(=O)c1ccc(Nc2ncc(C(F)(F)F)c(NCc3nccnc3N(C)[S+](C)(=O)[O-])n2)cc1 [Defactinib (VS-6063, PF-04554878)] | -1.1 | -79.8 | -50.3 |  |  |  | 
O=C(Nc1ccnc(NC(=O)C2CC2)c1)c1c(Cl)cccc1Cl [GDC-046] | -1.1 | -83.7 | -94.2 | 33.6 nM |  |  | 31.6 nM
O=C1Nc2ccccc2/C1=C1/Nc2ccccc2/C1=N\OCCC(O)CO (stereo not drawn) [Indirubin_E8] | -1.1 | -83.1 | -81.2 |  |  |  | 
CCOC(=O)c1c(/C(C#N)=C\N)c2ccc(Cl)c(Cl)c2n1C [KH-CB19] | -1.1 | -88.2 | -90.2 |  |  | 336 nM | 
